Test results taken from the supplement of paper PMC10307832.

What was measured:
Experiment in all cases: relative viability (nuclei count vs DMSO), 5 days (fraction); higher = more cells survive
NCI-H1355 = tested on: NCI-H1355
Outline: (§1)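 Values are medians from duplicate plates. Each reflects relative viability, defined as the nuclei count of treated wells over that of vehicle wells. Lung cancer cell lines in 1536-well plates were pin-tool dosed one day after seeding with one drug alone or with a fixed anchor-drug dose plus five library-drug doses (not always all listed) in √10 steps, then fixed, stained and imaged at 4× after 5 days.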

ABC-1 = tested on: ABC-1
Outline: as §1

NCI-H1993 = tested on: NCI-H1993
Outline: as §1

201T = tested on: 201T
Outline: as §1

NCI-H322M = tested on: NCI-H322M
Outline: as §1

NCI-H2170 = tested on: NCI-H2170
Outline: as §1

HCC-44 = tested on: HCC-44
Outline: as §1

NCI-H647 = tested on: NCI-H647
Outline: as §1

NCI-H1395 = tested on: NCI-H1395
Outline: as §1

NCI-H661 = tested on: NCI-H661
Outline: as §1

NCI-H2347 = tested on: NCI-H2347
Outline: as §1

COR-L23 = tested on: COR-L23
Outline: as §1

LC-2-ad = tested on: LC-2-ad
Outline: as §1

HOP-62 = tested on: HOP-62
Outline: as §1

NCI-H520 = tested on: NCI-H520
Outline: as §1

NCI-H1651 = tested on: NCI-H1651
Outline: as §1

NCI-H2085 = tested on: NCI-H2085
Outline: as §1

NCI-H838 = tested on: NCI-H838
Outline: as §1

NCI-H1666 = tested on: NCI-H1666
Outline: as §1

NCI-H23 = tested on: NCI-H23
Outline: as §1

LCLC-103H = tested on: LCLC-103H
Outline: as §1

Q: With `O=C(O)CCCCC(CCSCc1ccccc1)SCc1ccccc1` (stereo not given) [CPI-613] + Nc1ncn([C@H]2C[C@H](O)[C@@H](CO)O2)c(=O)n1 [Decitabine] (partner 2 µM) as the compound, how does the relative viability (NCI-H1355; first compound 5 µM) read?
A: 0.34

Q: And the relative viability (NCI-H1355; first compound 15.81 µM)?
A: 0.337

Q: What about the relative viability (NCI-H1355; first compound 50 µM) of the same compound?
A: 0.342

Q: And the relative viability (NCI-H1355; first compound 158.11 µM)?
A: 0.341

Q: What about the relative viability (NCI-H1355; first compound 500 µM) of the same compound?
A: 0.114

Q: And the relative viability (ABC-1; first compound 5 µM)?
A: 1.18

Q: What about the relative viability (ABC-1; first compound 15.81 µM) of the same compound?
A: 1.28

Q: What about the relative viability (ABC-1; first compound 50 µM) of the same compound?
A: 1.37

Q: What about the relative viability (ABC-1; first compound 158.11 µM) of the same compound?
A: 0.698

Q: What about the relative viability (ABC-1; first compound 500 µM) of the same compound?
A: 0.864

Q: What about the relative viability (NCI-H1993; first compound 5 µM) of the same compound?
A: 0.643

Q: What about the relative viability (NCI-H1993; first compound 15.81 µM) of the same compound?
A: 0.56

Q: And the relative viability (NCI-H1993; first compound 50 µM)?
A: 0.679

Q: And the relative viability (NCI-H1993; first compound 158.11 µM)?
A: 0.61

Q: And the relative viability (NCI-H1993; first compound 500 µM)?
A: 0.327

Q: What about the relative viability (201T; first compound 5 µM) of the same compound?
A: 0.848

Q: And the relative viability (201T; first compound 15.81 µM)?
A: 0.778

Q: And the relative viability (201T; first compound 50 µM)?
A: 0.841

Q: What about the relative viability (201T; first compound 158.11 µM) of the same compound?
A: 0.194

Q: What about the relative viability (201T; first compound 500 µM) of the same compound?
A: 0.211

Q: And the relative viability (NCI-H322M; first compound 5 µM)?
A: 0.65

Q: And the relative viability (NCI-H322M; first compound 15.81 µM)?
A: 0.656

Q: And the relative viability (NCI-H322M; first compound 50 µM)?
A: 0.664

Q: What about the relative viability (NCI-H322M; first compound 158.11 µM) of the same compound?
A: 0.767

Q: What about the relative viability (NCI-H322M; first compound 500 µM) of the same compound?
A: 0.703

Q: And the relative viability (NCI-H2170; first compound 5 µM)?
A: 0.458

Q: What about the relative viability (NCI-H2170; first compound 15.81 µM) of the same compound?
A: 0.484

Q: And the relative viability (NCI-H2170; first compound 50 µM)?
A: 0.486

Q: And the relative viability (NCI-H2170; first compound 158.11 µM)?
A: 0.342

Q: And the relative viability (NCI-H2170; first compound 500 µM)?
A: 0.199

Q: And the relative viability (HCC-44; first compound 5 µM)?
A: 0.877

Q: And the relative viability (HCC-44; first compound 15.81 µM)?
A: 1.01

Q: What about the relative viability (HCC-44; first compound 50 µM) of the same compound?
A: 0.922

Q: And the relative viability (HCC-44; first compound 158.11 µM)?
A: 0.828

Q: What about the relative viability (HCC-44; first compound 500 µM) of the same compound?
A: 0.779

Q: What about the relative viability (NCI-H647; first compound 5 µM) of the same compound?
A: 0.345

Q: What about the relative viability (NCI-H647; first compound 15.81 µM) of the same compound?
A: 0.462

Q: What about the relative viability (NCI-H647; first compound 50 µM) of the same compound?
A: 0.352

Q: What about the relative viability (NCI-H647; first compound 158.11 µM) of the same compound?
A: 0.0749

Q: And the relative viability (NCI-H647; first compound 500 µM)?
A: 0.0141

Q: And the relative viability (NCI-H1395; first compound 5 µM)?
A: 0.667

Q: What about the relative viability (NCI-H1395; first compound 15.81 µM) of the same compound?
A: 0.654

Q: And the relative viability (NCI-H1395; first compound 50 µM)?
A: 0.764

Q: And the relative viability (NCI-H1395; first compound 158.11 µM)?
A: 0.675

Q: What about the relative viability (NCI-H1395; first compound 500 µM) of the same compound?
A: 0.597

Q: What about the relative viability (NCI-H661; first compound 5 µM) of the same compound?
A: 0.547

Q: What about the relative viability (NCI-H661; first compound 15.81 µM) of the same compound?
A: 0.49

Q: And the relative viability (NCI-H661; first compound 50 µM)?
A: 0.577

Q: What about the relative viability (NCI-H661; first compound 158.11 µM) of the same compound?
A: 0.381

Q: What about the relative viability (NCI-H661; first compound 500 µM) of the same compound?
A: 0.0993

Q: And the relative viability (NCI-H2347; first compound 5 µM)?
A: 0.652

Q: What about the relative viability (NCI-H2347; first compound 15.81 µM) of the same compound?
A: 0.553

Q: What about the relative viability (NCI-H2347; first compound 50 µM) of the same compound?
A: 0.706

Q: And the relative viability (NCI-H2347; first compound 158.11 µM)?
A: 0.614

Q: What about the relative viability (NCI-H2347; first compound 500 µM) of the same compound?
A: 0.347

Q: What about the relative viability (COR-L23; first compound 5 µM) of the same compound?
A: 0.494

Q: And the relative viability (COR-L23; first compound 15.81 µM)?
A: 0.367

Q: What about the relative viability (COR-L23; first compound 50 µM) of the same compound?
A: 0.469

Q: What about the relative viability (COR-L23; first compound 158.11 µM) of the same compound?
A: 0.229

Q: What about the relative viability (COR-L23; first compound 500 µM) of the same compound?
A: 0.0175

Q: And the relative viability (LC-2-ad; first compound 5 µM)?
A: 0.781

Q: And the relative viability (LC-2-ad; first compound 15.81 µM)?
A: 0.859

Q: What about the relative viability (LC-2-ad; first compound 50 µM) of the same compound?
A: 0.705

Q: And the relative viability (LC-2-ad; first compound 158.11 µM)?
A: 0.578

Q: And the relative viability (LC-2-ad; first compound 500 µM)?
A: 0.0132

Q: What about the relative viability (HOP-62; first compound 5 µM) of the same compound?
A: 0.186

Q: And the relative viability (HOP-62; first compound 15.81 µM)?
A: 0.235

Q: And the relative viability (HOP-62; first compound 50 µM)?
A: 0.191

Q: What about the relative viability (HOP-62; first compound 158.11 µM) of the same compound?
A: 0.173

Q: What about the relative viability (HOP-62; first compound 500 µM) of the same compound?
A: 0.0675

Q: What about the relative viability (NCI-H520; first compound 5 µM) of the same compound?
A: 0.48

Q: What about the relative viability (NCI-H520; first compound 15.81 µM) of the same compound?
A: 0.502

Q: What about the relative viability (NCI-H520; first compound 50 µM) of the same compound?
A: 0.428

Q: What about the relative viability (NCI-H520; first compound 158.11 µM) of the same compound?
A: 0.271

Q: And the relative viability (NCI-H520; first compound 500 µM)?
A: 0.149

Q: What about the relative viability (NCI-H1651; first compound 5 µM) of the same compound?
A: 0.625

Q: What about the relative viability (NCI-H1651; first compound 15.81 µM) of the same compound?
A: 0.504

Q: And the relative viability (NCI-H1651; first compound 50 µM)?
A: 0.661

Q: What about the relative viability (NCI-H1651; first compound 158.11 µM) of the same compound?
A: 0.523

Q: What about the relative viability (NCI-H1651; first compound 500 µM) of the same compound?
A: 0.562

Q: And the relative viability (NCI-H2085; first compound 5 µM)?
A: 0.536

Q: What about the relative viability (NCI-H2085; first compound 15.81 µM) of the same compound?
A: 0.525

Q: What about the relative viability (NCI-H2085; first compound 50 µM) of the same compound?
A: 0.568

Q: And the relative viability (NCI-H2085; first compound 158.11 µM)?
A: 0.437

Q: What about the relative viability (NCI-H2085; first compound 500 µM) of the same compound?
A: 0.208

Q: What about the relative viability (NCI-H838; first compound 5 µM) of the same compound?
A: 0.449

Q: What about the relative viability (NCI-H838; first compound 15.81 µM) of the same compound?
A: 0.437

Q: And the relative viability (NCI-H838; first compound 50 µM)?
A: 0.386

Q: What about the relative viability (NCI-H838; first compound 158.11 µM) of the same compound?
A: 0.253

Q: What about the relative viability (NCI-H838; first compound 500 µM) of the same compound?
A: 0.104

Q: What about the relative viability (NCI-H1666; first compound 5 µM) of the same compound?
A: 0.676

Q: What about the relative viability (NCI-H1666; first compound 15.81 µM) of the same compound?
A: 0.601

Q: And the relative viability (NCI-H1666; first compound 50 µM)?
A: 0.798

Q: What about the relative viability (NCI-H1666; first compound 158.11 µM) of the same compound?
A: 0.639

Q: And the relative viability (NCI-H1666; first compound 500 µM)?
A: 0.509

Q: What about the relative viability (NCI-H23; first compound 5 µM) of the same compound?
A: 0.34

Q: And the relative viability (NCI-H23; first compound 15.81 µM)?
A: 0.321

Q: What about the relative viability (NCI-H23; first compound 50 µM) of the same compound?
A: 0.326

Q: What about the relative viability (NCI-H23; first compound 158.11 µM) of the same compound?
A: 0.155

Q: And the relative viability (NCI-H23; first compound 500 µM)?
A: 0.0289

Q: What about the relative viability (LCLC-103H; first compound 5 µM) of the same compound?
A: 0.753

Q: What about the relative viability (LCLC-103H; first compound 15.81 µM) of the same compound?
A: 0.77

Q: And the relative viability (LCLC-103H; first compound 50 µM)?
A: 0.714

Q: And the relative viability (LCLC-103H; first compound 158.11 µM)?
A: 0.29

Q: And the relative viability (LCLC-103H; first compound 500 µM)?
A: 0.288
